Data from patent US4358441A, “Nicotinic derivatives of glucosamine and related pharmaceutical compositions” (Laboratorio Guidotti & C. S.p.A., priority 1980, dated 1982).

Legend:
rats of both sexes = test: Acute toxicity (LD50) in rats of both sexes, oral and intraperitoneal route; conditions: rat
[1] = tested on: plasma levels of triglycerides; test: Effect of oral administration on plasma levels of triglycerides in the empty rat; type: in vivo, rat (COBS CD (SD) BR male); conditions: for Percent variations of plasma triglycerides with respect to the controls: empty rat; for Time within which the effect on triglycerides disappears: rat
in vivo [2] = conditions: rat
[3] = tested on: plasma levels of cholesterol; test: Effect of oral administration on plasma levels of cholesterol in the empty rat; type: in vivo, rat (COBS CD (SD) BR male); conditions: for Percent variations of plasma cholesterol with respect to the controls: 100 mg/kg oral referred to nicotinic acid, empty rat
[4] = tested on: plasma levels of free glycerol; test: Effect of oral administration on plasma levels of free glycerol in the empty rat; type: in vivo, rat (COBS CD (SD) BR male); conditions: for Percent variations of plasma free glycerol with respect to the controls: empty rat; for Activity on free glycerol: 30 mg/kg oral; for Activity on free glycerol / Time within which the effect on free glycerol disappears: rat; for Time within which the effect on free glycerol disappears: 100 mg/kg oral
plasma levels of FFA = test: Effect of oral administration on plasma levels of FFA in the empty rat; conditions: for Percent variations of plasma FFA with respect to the controls: empty rat
[5] = Acute toxicity (LD50) in rats of both sexes, oral and intraperitoneal route; conditions: rat, in vivo, LD50, rat
in vivo [6] = conditions: rat, po, 100 mg/kg
[7] = Plasma levels (kinetics) of free nicotinic acid after oral administration in the rat; conditions: 100 mg/kg p.o.
[8] = 30 mg/kg oral referred to nicotinic acid, 1 h
[9] = 30 mg/kg oral referred to nicotinic acid, 2 h
[10] = 30 mg/kg oral referred to nicotinic acid, 4 h
[11] = 30 mg/kg oral referred to nicotinic acid, 6 h
[12] = 30 mg/kg oral referred to nicotinic acid, 8 h
[13] = 30 mg/kg oral referred to nicotinic acid, 10 h
[14] = 30 mg/kg oral referred to nicotinic acid, 12 h
[15] = 30 mg/kg oral referred to nicotinic acid, 16 h
[16] = 100 mg/kg oral referred to nicotinic acid, 2 h
[17] = 100 mg/kg oral referred to nicotinic acid, 4 h
[18] = 100 mg/kg oral referred to nicotinic acid, 6 h
[19] = 100 mg/kg oral referred to nicotinic acid, 8 h
[20] = 100 mg/kg oral referred to nicotinic acid, 10 h
[21] = 100 mg/kg oral referred to nicotinic acid, 16 h
[22] = 100 mg/kg oral referred to nicotinic acid, 24 h
[23] = 100 mg/kg oral referred to nicotinic acid, 32 h

O=C(N[C@H]1C(OC(=O)c2cccnc2)O[C@H](COC(=O)c2cccnc2)[C@@H](OC(=O)c2cccnc2)[C@@H]1OC(=O)c1cccnc1)c1cccnc1 (stereo partly drawn) [GLUN, N-nicotinoyl-glucosamine tetranicotinate]
Acute toxicity lower than that of nicotinic acid (rats of both sexes; intraperitoneal route): 20 times
Acute toxicity lower than that of nicotinic acid (rats of both sexes; oral route): 2 times
Percent variations of plasma triglycerides with respect to the controls [1, 8]: -2%
Percent variations of plasma triglycerides with respect to the controls [1, 9]: -45%
Percent variations of plasma triglycerides with respect to the controls [1, 10]: -44%
Percent variations of plasma triglycerides with respect to the controls [1, 11]: -41%
Percent variations of plasma triglycerides with respect to the controls [1, 12]: -36%
Percent variations of plasma triglycerides with respect to the controls [1, 13]: -62%
Percent variations of plasma triglycerides with respect to the controls [1, 14]: -31%
Percent variations of plasma triglycerides with respect to the controls [1, 15]: +31%
Time within which the effect on triglycerides disappears ([1]; 30 mg/kg oral): ≤ 16 h
Percent variations of plasma triglycerides with respect to the controls [1, 16]: -52%
Percent variations of plasma triglycerides with respect to the controls [1, 17]: -65%
Percent variations of plasma triglycerides with respect to the controls [1, 18]: -72%
Percent variations of plasma triglycerides with respect to the controls [1, 19]: -75%
Percent variations of plasma triglycerides with respect to the controls [1, 20]: -65%
Percent variations of plasma triglycerides with respect to the controls [1, 21]: -67%
Percent variations of plasma triglycerides with respect to the controls [1, 22]: 3%
Percent variations of plasma triglycerides with respect to the controls [1, 23]: +13%
Time within which the effect on triglycerides disappears ([1]; 100 mg/kg oral): within the twenty fourth hour
LD50 (in vivo [2]; ip, female): 6750 mg/kg
LD50 (in vivo [2]; ip, male): 6650 mg/kg
LD50 (in vivo [2]; po, female, os): > 8000 mg/kg
LD50 (in vivo [2]; po, male, os): > 8000 mg/kg
Percent variations of plasma cholesterol with respect to the controls ([3]; 4 h): +9%
Percent variations of plasma cholesterol with respect to the controls ([3]; 6 h): -4%
Percent variations of plasma cholesterol with respect to the controls ([3]; 8 h): -13%
Percent variations of plasma cholesterol with respect to the controls ([3]; 10 h): -29%
Percent variations of plasma cholesterol with respect to the controls ([3]; 16 h): -53%
Percent variations of plasma cholesterol with respect to the controls ([3]; 24 h): -37%
Percent variations of plasma cholesterol with respect to the controls ([3]; 32 h): -42%
Percent variations of plasma cholesterol with respect to the controls ([3]; 48 h): -29%
Cholesterol lowering effect with respect to that of the reference standards ([3]; 100 mg/kg oral, rat): constantly more relevant
Lowering of cholesterolemy ([3]; 100 mg/kg oral, rat): depresses the cholesterolemy from the eighth to the fortyeighth hour
Percent variations of plasma free glycerol with respect to the controls [4, 8]: -27%
Percent variations of plasma free glycerol with respect to the controls [4, 9]: -63%
Percent variations of plasma free glycerol with respect to the controls [4, 10]: -7%
Percent variations of plasma free glycerol with respect to the controls [4, 11]: -17%
Percent variations of plasma free glycerol with respect to the controls [4, 12]: -25%
Percent variations of plasma free glycerol with respect to the controls [4, 13]: -4%
Percent variations of plasma free glycerol with respect to the controls [4, 14]: -5%
Percent variations of plasma free glycerol with respect to the controls [4, 15]: +5%
Activity on free glycerol [4]: active at the 2nd hour
Percent variations of plasma free glycerol with respect to the controls [4, 16]: -81%
Percent variations of plasma free glycerol with respect to the controls [4, 17]: -47%
Percent variations of plasma free glycerol with respect to the controls [4, 18]: -24%
Percent variations of plasma free glycerol with respect to the controls [4, 19]: -32%
Percent variations of plasma free glycerol with respect to the controls [4, 20]: -41%
Percent variations of plasma free glycerol with respect to the controls [4, 21]: +3%
Percent variations of plasma free glycerol with respect to the controls [4, 22]: 0%
Percent variations of plasma free glycerol with respect to the controls [4, 23]: +16%
Time within which the effect on free glycerol disappears [4]: within the sixteenth hour
Percent variations of plasma FFA with respect to the controls (plasma levels of FFA; [8]): -33%
Percent variations of plasma FFA with respect to the controls (plasma levels of FFA; [9]): -67%
Percent variations of plasma FFA with respect to the controls (plasma levels of FFA; [10]): -3%
Percent variations of plasma FFA with respect to the controls (plasma levels of FFA; [11]): -16%
Depression of plasma FFA (plasma levels of FFA; 30 mg/kg oral, rat): still active in the second hour
Percent variations of plasma FFA with respect to the controls (plasma levels of FFA; [16]): -74%
Percent variations of plasma FFA with respect to the controls (plasma levels of FFA; [17]): -41%
Percent variations of plasma FFA with respect to the controls (plasma levels of FFA; [18]): -28%
Percent variations of plasma FFA with respect to the controls (plasma levels of FFA; [19]): -43%
Percent variations of plasma FFA with respect to the controls (plasma levels of FFA; [20]): -40%
Percent variations of plasma FFA with respect to the controls (plasma levels of FFA; [21]): -7%
Percent variations of plasma FFA with respect to the controls (plasma levels of FFA; [22]): -2%
Time within which the effect on FFA disappears (plasma levels of FFA; 100 mg/kg oral, rat): ≤ 16 h

O=C(O)c1cccnc1 [NICOTINIC ACID, nicotinic acid]
LD50 ([5]; ip, female): 296 mg/kg
LD50 ([5]; ip, male): 328 mg/kg
LD50 ([5]; po, female, os): 3850 mg/kg
LD50 ([5]; po, male, os): 3860 mg/kg
Percent variations of plasma triglycerides with respect to the controls [1, 8]: -49%
Percent variations of plasma triglycerides with respect to the controls [1, 9]: -49%
Percent variations of plasma triglycerides with respect to the controls [1, 10]: +8%
Percent variations of plasma triglycerides with respect to the controls [1, 11]: +17%
Time within which the effect on triglycerides disappears ([1]; 30 mg/kg oral): ≤ 4 h
Percent variations of plasma triglycerides with respect to the controls [1, 16]: -57%
Percent variations of plasma triglycerides with respect to the controls [1, 17]: -58%
Percent variations of plasma triglycerides with respect to the controls [1, 18]: -59%
Percent variations of plasma triglycerides with respect to the controls [1, 19]: -38%
Percent variations of plasma triglycerides with respect to the controls [1, 20]: +4%
Percent variations of plasma triglycerides with respect to the controls [1, 21]: +21%
Percent variations of plasma triglycerides with respect to the controls [1, 22]: -16%
Time within which the effect on triglycerides disappears ([1]; 100 mg/kg oral): within the tenth hour
Percent variations of plasma cholesterol with respect to the controls ([3]; 4 h): -12%
Percent variations of plasma cholesterol with respect to the controls ([3]; 6 h): -12%
Percent variations of plasma cholesterol with respect to the controls ([3]; 8 h): -13%
Percent variations of plasma cholesterol with respect to the controls ([3]; 10 h): -17%
Percent variations of plasma cholesterol with respect to the controls ([3]; 16 h): -14%
Percent variations of plasma cholesterol with respect to the controls ([3]; 24 h): -27%
Lowering of cholesterolemy ([3]; 100 mg/kg oral, rat): lowered at the eighth, tenth and twenty fourth hour
Percent variations of plasma free glycerol with respect to the controls [4, 8]: -72%
Percent variations of plasma free glycerol with respect to the controls [4, 9]: -27%
Percent variations of plasma free glycerol with respect to the controls [4, 10]: +16%
Percent variations of plasma free glycerol with respect to the controls [4, 11]: +15%
Activity on free glycerol [4]: active only after 1 hour
Percent variations of plasma free glycerol with respect to the controls [4, 16]: -73%
Percent variations of plasma free glycerol with respect to the controls [4, 17]: -71%
Percent variations of plasma free glycerol with respect to the controls [4, 18]: +9%
Percent variations of plasma free glycerol with respect to the controls [4, 19]: +11%
Percent variations of plasma free glycerol with respect to the controls [4, 20]: +16%
Percent variations of plasma free glycerol with respect to the controls [4, 21]: -12%
Percent variations of plasma free glycerol with respect to the controls [4, 22]: -4%
Time within which the effect on free glycerol disappears [4]: within the sixth hour
Tmax (in vivo [6]): ≤ 30 min
concentration at 0.5 h (in vivo [6]): 108000 ng/mL
concentration at 1 h (in vivo [6]): 106000 ng/mL
concentration at 2 h (in vivo [6]): 98300 ng/mL
concentration at 4 h (in vivo [6]): 10600 ng/mL
concentration at 6 h (in vivo [6]): 760 ng/mL
concentration at 8 h (in vivo [6]): 250 ng/mL
concentration at 12 h (in vivo [6]): 490 ng/mL
concentration at 16 h (in vivo [6]): 120 ng/mL
Percent variations of plasma FFA with respect to the controls (plasma levels of FFA; [8]): -81%
Percent variations of plasma FFA with respect to the controls (plasma levels of FFA; [9]): -43%
Percent variations of plasma FFA with respect to the controls (plasma levels of FFA; [10]): +23%
Percent variations of plasma FFA with respect to the controls (plasma levels of FFA; [11]): +11%
FFA rebound (plasma levels of FFA; 30 mg/kg oral, rat): causes FFA rebound in the fourth hour
Percent variations of plasma FFA with respect to the controls (plasma levels of FFA; [16]): -77%
Percent variations of plasma FFA with respect to the controls (plasma levels of FFA; [17]): -68%
Percent variations of plasma FFA with respect to the controls (plasma levels of FFA; [18]): +23%
Percent variations of plasma FFA with respect to the controls (plasma levels of FFA; [19]): +23%
Percent variations of plasma FFA with respect to the controls (plasma levels of FFA; [20]): +13%
Percent variations of plasma FFA with respect to the controls (plasma levels of FFA; [21]): -9%
Percent variations of plasma FFA with respect to the controls (plasma levels of FFA; [22]): -5%
FFA rebound (plasma levels of FFA; 100 mg/kg oral, rat): eighth
Time within which the effect on FFA disappears (plasma levels of FFA; 100 mg/kg oral, rat): ≤ 6 h
Peak plasma concentration of free nicotinic acid, times higher than that of niceritrole [7]: about two times higher
